A short description of this data set: preservation of doxorubicin efficacy in the implanted construct. It counts as in vivo. As to conditions: in STID-Dox-PLGA85/15 construct, 3 weeks inside an animal body about 37C.

This is an account of results in patent US20190001106A1, “THERAPEUTIC DELIVERY DEVICE” (priority 2013, published 2019).

In the case of `COc1cccc2c1C(=O)c1c(O)c3c(c(O)c1C2=O)C[C@@](O)(C(=O)CO)C[C@@H]3O[C@H]1C[C@H](N)[C@H](O)[C@H](C)O1` [doxorubicin, Doxorubicin], the “efficacy of doxorubicin after residence in the construct” value is “efficacy is still preserved”.
